In paper PMC8531552, “Full-Length Galectin-3 Is Required for High Affinity Microbial Interactions and Antimicrobial Activity” (Frontiers in Microbiology, 2021):

Key:
P. alcalifaciens O5 [1] = assay: Flow cytometry analysis of galectin binding to intact bacteria; parameters: species or system Providentia alcalifaciens O5
Description: (§1) To examine potential binding by each galectin, bacteria were resuspended and washed twice in PBS at 4°C and then incubated with 0.1μM Alexa Fluor™ 488 labeled Gal-3 or Gal-3C at 4°C for 20min. In some experiments, Gal-3 or Gal-3C were co-incubated with 20mM thiodigalactoside (TDG) for 10min before incubation with the bacteria as a control. After incubation, cells were washed twice and resuspended them in 400μl PBS for flow cytometry analysis using FACSCanto II flow cytometer (BD Biosciences). The data were processed with FlowJo version 10.

K. pneumoniae O1 [2] = assay: as above; parameters: species or system Klebsiella pneumoniae O1
Description: as §1

K. pneumoniae O1 [3] = assay: Bacteria viability by CFU enumeration; type: cell-based, Klebsiella pneumoniae O1; details: 37°C, 2h
Description: (§2) When assaying potential antimicrobial effects of Gal-3 and Gal-3C, each strain was assessed in the mid-logarithmic growth phase (OD600 of ~0.1) and grown in LB media as outlined previously ([Arthur et al., 2015b]). Bacterial cells were incubated with the concentrations of each galectin indicated in the figure legends (0.04–10μM) at 37°C for 2h with shaking at 250rpm. Bacteria were then pipetted and plated on LB agar plate to determine the number of viable bacteria by CFU enumeration.

P. alcalifaciens O21 [4] = assay: Flow cytometry analysis of galectin binding to intact bacteria; parameters: species or system Providentia alcalifaciens O21; details: 0.1μM Alexa Fluor 488 labeled galectin, 4°C, 20min
Description: as §1

P. alcalifaciens O21 [5] = assay: Bacteria viability by CFU enumeration; type: cell-based, Providentia alcalifaciens O21; details: 0.04–10μM, 37°C, 2h
Description: as §2

K. pneumoniae O4 = assay: Bacteria viability by CFU enumeration; type: cell-based, Klebsiella pneumoniae O4; details: 0.04–10μM, 37°C, 2h
Description: as §2

P. alcalifaciens O5 [6] = assay: Bacteria viability by CFU enumeration; type: cell-based, Providentia alcalifaciens O5; details: 37°C, 2h
Description: as §2

human Gal-3 = biological target: T1, human Gal-3 (Homo sapiens, UniProt P17931); assay: CFG glycan microarray binding of Alexa Fluor 488 labeled Gal-3
T1 construct: made in house; host or cells: E. coli BL21 (DE3)
Description: (§3) Galectins were labeled with Alexa Fluor™ 488 NHS Ester (succinimidyl ester) by incubating 2mg/ml galectin with 1mg Alexa Fluor™ 488 for 1h at room temperature and avoid from light as outlined previously ([Stowell et al., 2004]). […] While 2-ME is not required for Gal-3 activity, this approach was used to provide a consistent protocol for all galectin purification. […] Finally, labeled galectin was applied to CFG glycan microarray (CFG) and MGM prepared as described previously ([Blixt et al., 2004]; [Stowell et al., 2008a], [2014]; [Song et al., 2009]; [Wu et al., 2021a]). […] The slide was dried by microcentrifugation, and an image of bound fluorescence was obtained using a microarray scanner (GenePix 4000 B, Molecular devices). […] For non-saturated positive glycan interactions, the relative fluorescence units were plotted as a percent of the maximal binding at the highest concentration examined.
(§4) In order to compare the relative binding affinities of Gal-3 and Gal-3C toward blood group antigens and other glycan structures present on the array, we calculated the relative KD generated from binding isotherm data for each galectin toward various blood group antigens, polylactosamine (polyLacNAc), and other common structural modifications previously shown to influence galectin recognition (e.g., α2-6 sialylation).

[7] = biological target: T2, human Gal-3C (C-terminal domain of Gal-3) (Homo sapiens, UniProt P17931); assay: CFG glycan microarray binding of Alexa Fluor 488 labeled Gal-3C
T2 construct: made in house; host or cells: E. coli BL21 (DE3)
Description: as §3, §4

[8] = 20mM TDG co-incubated with galectin
[9] = 0.1μM Alexa Fluor 488 labeled galectin, 4°C, 20min

T2 sequence (P17931 118-248 limits assumed): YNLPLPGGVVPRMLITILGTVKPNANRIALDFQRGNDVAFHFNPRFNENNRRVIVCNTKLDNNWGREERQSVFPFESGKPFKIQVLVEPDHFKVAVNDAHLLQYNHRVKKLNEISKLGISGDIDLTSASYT
T1 sequence (P17931 whole entry): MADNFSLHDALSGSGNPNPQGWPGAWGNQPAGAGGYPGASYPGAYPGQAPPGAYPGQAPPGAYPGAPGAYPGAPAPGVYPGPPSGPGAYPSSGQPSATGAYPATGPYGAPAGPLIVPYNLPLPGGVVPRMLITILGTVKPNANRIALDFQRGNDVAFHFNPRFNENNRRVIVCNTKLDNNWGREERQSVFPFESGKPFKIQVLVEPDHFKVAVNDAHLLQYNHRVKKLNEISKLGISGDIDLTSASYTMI

OC[C@H]1O[C@@H](S[C@@H]2O[C@H](CO)[C@H](O)[C@H](O)[C@H]2O)[C@H](O)[C@@H](O)[C@H]1O [TDG, thiodigalactoside, reference compound]
effect on Gal-3 and Gal-3C engagement of P. alcalifaciens O5 (P. alcalifaciens O5 [1]; [8]): inhibited recognition
effect on Gal-3 and Gal-3C binding to K. pneumoniae O1 (K. pneumoniae O1 [2]; [8]): prevented binding

Gal-3: recombinant human galectin-3, full-length chimeric galectin expressed in E. coli
impact on viability of K. pneumoniae O1 (K. pneumoniae O1 [3]; 0.04–10μM): loss of microbial viability was noted at higher concentrations
EC50 (K. pneumoniae O1 [3]; CFU enumeration, read-out: EC50 toward K. pneumoniae O1 viability): 750 nM
binding to P. alcalifaciens O5 (P. alcalifaciens O5 [1]; [9]): Clear interactions
binding to K. pneumoniae O1 (K. pneumoniae O1 [2]; [9]): bound K. pneumoniae O1
binding to P. alcalifaciens O21 (P. alcalifaciens O21 [4]): failed to result in any detectable binding
impact on viability of P. alcalifaciens O21 (P. alcalifaciens O21 [5]): failed to result in any detectable impact on microbial viability
impact on viability of K. pneumoniae O4 (K. pneumoniae O4): failed to impact the viability
impact on viability of P. alcalifaciens O5 (P. alcalifaciens O5 [6]; 0.04–10μM): reduced viability
EC50 (P. alcalifaciens O5 [6]; CFU enumeration, read-out: effective concentration 50 (EC50), viability of P. alcalifaciens O5): ~170 nM

blood group B
Gal-3 concentration at which recognition was observed (human Gal-3; CFG array, virtually no binding at or below 0.12μM): 0.36 µM
Gal-3 binding on CFG array (human Gal-3; binding isotherms, Fig 2 and 3): high affinity interactions
Gal-3C concentration required for similar absolute binding as Gal-3 at […] ([7]; CFG array): 3.3 µM
Gal-3C binding on CFG array ([7]; binding isotherms, Fig 2): high affinity interactions
